Where “and” joins values, the source holds several entries; their conditions need not be identical. Identical values can stand only once.
What was measured:
P. aeruginosa LESB58 = assay: Cutaneous abscess mouse model (CFU); format: in vivo, mice; conditions: cutaneous abscesses induced by P. aeruginosa in mice; repeated doses post-infection, 9 mg/kg; second data set; individual values
Description: For the cutaneous abscess model, the mice were randomly divided into 5 sets. The mice were anesthetized with isoflurane, their dorsal fur shaved, and their skin disinfected with 70% ethanol. An overnight culture of S. aureus MRSA or P. aeruginosa LESB58 was washed with 0.9% NaCl, and then a subcutaneous injection of 2 × 10^9 CFUs and an equal amount of sterile Cytodex microcarrier beads (20 mg.ml^−1, Sigma) for S. aureus MRSA, or 10^8 CFUs for P. aeruginosa were injected into the shaved area. […] Mice were monitored every day and then euthanized with CO2 on Day 6 or on Day 3. Abscesses were excised, measured, and homogenized in PBS using an Ultra-Turax. Serial dilutions of the samples were plated on BHI (MRSA) or 2YT medium (LESB58) plates and then incubated overnight at 37°C. Afterward, the CFUs were counted and expressed as log CFU/ml. Dermonecrosis areas were calculated according to the formula π × L × W. ATP levels were determined with an ATP assay kit (Promega) according to manufacturer instructions on sets of 5 colonies harboring the SCV phenotype, and sets of 5 colonies harboring a normal phenotype, after growth on BHI plates.

Escherichia coli K12 = conditions: E. coli K12; for MIC: broth microdilution, 3 independent experiments
Description: (§1) (10−4 M final concentrations). At selected time intervals, 100 μl of reaction mixture was collected, quenched by 200 μl 95% EtOH, and adjusted at pH 2 to prevent peptide adsorption to serum proteins. […] Supernatants were analyzed by RP-HPLC on an Xbridge C18 column with a linear gradient of water, 0.08% TFA, and acetonitrile with 1% TFA. HPLC peak areas were used to calculate the percentages of intact compound remaining at the various time points. MIC and MBC values were determined in triplicate in many ESKAPE clinical isolates, including a dozen MDR S. aureus, by the broth microdilution method. Peptidomimetics and antibiotics were assayed in a concentration range of 1 to 128 μM. The bacterial inoculum (5 × 10^5 colony-forming units [CFUs]/well) was prepared in MHB or CAMHB (150 μl). A Biotek Synergy 2 spectrophotometer was used to record the results after 18–20 h incubation at 35°C (±2°C). […] After every hour of culture for 4 h, serial dilutions were plated on BHI plates and incubated overnight at 37°C, and then the CFUs were counted and expressed as log CFU/ml. Phosphate-buffered saline (PBS)-exposed S. aureus MRSA was included as a control.

S. aureus N315 (MRSA) = assay: microbe, parasite or virus in culture; conditions: S. aureus N315 (MRSA); broth microdilution; 3 independent experiments
Description: as §1

S. aureus Newman = assay: microbe, parasite or virus in culture; conditions: S. aureus Newman; broth microdilution; 3 independent experiments
Description: as §1

S. aureus Mu3 (MRSA) = assay: microbe, parasite or virus in culture; conditions: S. aureus Mu3 (MRSA); broth microdilution; 3 independent experiments
Description: as §1

[1] = Stability in mouse serum (half-life); format: in vitro ADME; conditions: 25% mouse serum, pre-incubated 15 min at 37°C, peptide 10^−4 M, RP-HPLC peak areas, mean of biological triplicates
Description: as §1
(§2) Supplementary file pbio.3000337.s013.docx: S7 Table Peptide half-lives in human and mouse sera. […] Peptide amounts and half-lives were determined by HPLC. Experiments were conducted on 25% human or mouse sera. Values are shown in minutes. The mean values correspond to biological triplicates. HPLC, high pressure liquid chromatography. (DOCX) Click here for additional data file.

K. pneumoniae 13829 = system: K. pneumoniae 13829
Description: as §1

Escherichia coli MCR−1 = system: Escherichia coli MCR−1
Description: as §1

Escherichia coli PV = conditions: E. coli PV
Description: as §1

P. aeruginosa 15644 = system: P. aeruginosa 15644
Description: as §1

A. baumanii 11896 = system: A. baumanii 11896
Description: as §1

Escherichia coli ML35P = conditions: E. coli ML35P
Description: as §1

Escherichia coli 508 = system: Escherichia coli 508
Description: as §1

Escherichia coli 758 = system: Escherichia coli 758
Description: as §1

Escherichia coli 283 = system: Escherichia coli 283
Description: as §1

[2] = system: Enterobacter cloacae ATCC13047; conditions: Enterobacter cloacae ATCC13047
Description: as §1

K. pneumoniae 13825 = system: K. pneumoniae 13825
Description: as §1

A. baumanii 7985 = system: A. baumanii 7985
Description: as §1

P. aeruginosa 15637 = system: P. aeruginosa 15637
Description: as §1

P. aeruginosa 15641 = system: P. aeruginosa 15641
Description: as §1

P. aeruginosa PA14 = conditions: P. aeruginosa PA14
Description: as §1

Escherichia coli 146 = system: Escherichia coli 146
Description: as §1

Escherichia coli 066 = system: Escherichia coli 066
Description: as §1

Escherichia coli 750 = system: Escherichia coli 750
Description: as §1

P. aeruginosa 15638 = system: P. aeruginosa 15638
Description: as §1

P. aeruginosa 15643 = system: P. aeruginosa 15643
Description: as §1

Escherichia coli 444 = system: Escherichia coli 444
Description: as §1

Escherichia coli 293 = system: Escherichia coli 293
Description: as §1

Escherichia coli 13090 = system: Escherichia coli 13090
Description: as §1

[3] = Stability in human serum (half-life); format: in vitro ADME; conditions: 25% human serum, pre-incubated 15 min at 37°C, peptide 10^−4 M, RP-HPLC peak areas, mean of biological triplicates
Description: as §1, §2

[4] = broth microdilution, 3 independent experiments

Colistine
CFU counts per abscess (P. aeruginosa LESB58): 3.8 log Cfu/ml and 4 log Cfu/ml and 4.8 log Cfu/ml and 4.6 log Cfu/ml

nisin
MIC (Escherichia coli K12): 4 (16) μM | MIC (S. aureus N315 (MRSA)): 8 (32) μM | MIC (S. aureus Newman): 8 (32) μM | MIC (S. aureus Mu3 (MRSA)): 8 (32) μM

polymyxin B [reference compound]
Half-life in mouse serum [1]: 10.7 ± 2.7 h | MBC/MIC (K. pneumoniae 13829; K. pneumoniae 13829): 2 | MIC (K. pneumoniae 13829; K. pneumoniae 13829, clinical strain, Caen hemoculture, broth microdilution, 3 independent experiments): 8 (10.4) μM | MBC/MIC (Escherichia coli MCR−1; E. coli MCR−1): 1 | MIC (Escherichia coli MCR−1; E. coli MCR−1, clinical strain, Caen hemoculture, broth microdilution, 3 independent experiments): 2 (2.6) μM | MBC/MIC (Escherichia coli PV): 1 | MIC (Escherichia coli PV; clinical strain, Rennes vascular prosthetics, broth microdilution, 3 independent experiments): 0.5 (0.65) μM | MBC/MIC (P. aeruginosa 15644; P. aeruginosa 15644): 2 | MIC (P. aeruginosa 15644; P. aeruginosa 15644, clinical strain, Caen hemoculture, broth microdilution, 3 independent experiments): 1 (1.3) μM | MBC/MIC (A. baumanii 11896; A. baumanii 11896): 2 | MIC (A. baumanii 11896; A. baumanii 11896, clinical strain, Caen hemoculture, broth microdilution, 3 independent experiments): 1 (1.3) μM | MBC/MIC (Escherichia coli ML35P): 1 | MBC/MIC (Escherichia coli 508; E. coli 508): 1 | MIC (Escherichia coli 508; E. coli 508, clinical strain, Rennes urinary catheter, broth microdilution, 3 independent experiments): 0.5 (0.65) μM | MBC/MIC (Escherichia coli 758; E. coli 758): 1 | MIC (Escherichia coli 758; E. coli 758, clinical strain, Rennes urinary catheter, broth microdilution, 3 independent experiments): 0.5 (0.65) μM | MBC/MIC (Escherichia coli 283; E. coli 283): 1 | MIC (Escherichia coli 283; E. coli 283, clinical strain, Rennes urinary catheter, broth microdilution, 3 independent experiments): 0.5 (0.65) μM | MBC/MIC [2]: 2 | MIC [2, 4]: 8 (10.4) μM | MBC/MIC (K. pneumoniae 13825; K. pneumoniae 13825): 2 | MIC (K. pneumoniae 13825; K. pneumoniae 13825, clinical strain, Caen hemoculture, broth microdilution, 3 independent experiments): 2 (2.6) μM | MBC/MIC (A. baumanii 7985; A. baumanii 7985): 1 | MIC (A. baumanii 7985; A. baumanii 7985, clinical strain, Caen hemoculture, broth microdilution, 3 independent experiments): 1 (1.3) μM | MBC/MIC (P. aeruginosa 15637; P. aeruginosa 15637): 2 | MIC (P. aeruginosa 15637; P. aeruginosa 15637, clinical strain, Caen hemoculture, broth microdilution, 3 independent experiments): 1 (1.3) μM | MBC/MIC (P. aeruginosa 15641; P. aeruginosa 15641): 2 | MIC (P. aeruginosa 15641; P. aeruginosa 15641, clinical strain, Caen hemoculture, broth microdilution, 3 independent experiments): 1 (1.3) μM | MBC/MIC (P. aeruginosa PA14): 2 | MIC (P. aeruginosa PA14; [4]): 0.5 (0.65) μM | MBC/MIC (Escherichia coli 146; E. coli 146): 1 | MIC (Escherichia coli 146; E. coli 146, clinical strain, Rennes urinary catheter, broth microdilution, 3 independent experiments): 1 (1.3) μM | MBC/MIC (Escherichia coli 066; E. coli 066): 1 | MIC (Escherichia coli 066; E. coli 066, clinical strain, Rennes urinary catheter, broth microdilution, 3 independent experiments): 1 (1.3) μM | MBC/MIC (Escherichia coli 750; E. coli 750): 1 | MIC (Escherichia coli 750; E. coli 750, clinical strain, Rennes urinary catheter, broth microdilution, 3 independent experiments): 1 (1.3) μM | MBC/MIC (Escherichia coli K12): 1 | MIC (Escherichia coli K12): 0.5 (0.65) μM | MBC/MIC (P. aeruginosa 15638; P. aeruginosa 15638): 2 | MIC (P. aeruginosa 15638; P. aeruginosa 15638, clinical strain, Caen hemoculture, broth microdilution, 3 independent experiments): 1 (1.3) μM | MBC/MIC (P. aeruginosa 15643; P. aeruginosa 15643): 2 | MIC (P. aeruginosa 15643; P. aeruginosa 15643, clinical strain, Caen hemoculture, broth microdilution, 3 independent experiments): 0.5 (0.65) μM | MBC/MIC (Escherichia coli 444; E. coli 444): 1 | MIC (Escherichia coli 444; E. coli 444, clinical strain, Rennes urinary catheter, broth microdilution, 3 independent experiments): 0.5 (0.65) μM | MBC/MIC (Escherichia coli 293; E. coli 293): 1 | MIC (Escherichia coli 293; E. coli 293, clinical strain, Rennes urinary catheter, broth microdilution, 3 independent experiments): 0.5 (0.65) μM | MBC/MIC (Escherichia coli 13090; E. coli 13090): 1 | MIC (Escherichia coli 13090; E. coli 13090, clinical strain, Caen hemoculture, broth microdilution, 3 independent experiments): 0.5 (0.65) μM | Half-life in human serum [3]: 23 ± 3.33 h

— publication PMC6615598, “Novel antibiotics effective against gram-positive and -negative multi-resistant bacteria with limited resistance” (PLoS Biology, 2019)
